Experimental findings from patent US20260347338A1, “PYRIMIDINE/PYRIDINE DERIVATIVES OR SALTS THEREOF AND PHARMACEUTICAL COMPOSITIONS COMPRISING THE SAME” (YUHAN CORPORATION, priority 2023, published 2026) are described below.

In general, IC50 refers to the concentration at which inhibition is half-maximal.

The structures appear in SMILES notation. Counter-ions that a name gives are not always drawn.

This experiment concerns the target T1, human recombinant HPK1 (Homo sapiens, UniProt Q92918).
T1 construct: purchased BPS Bioscience
Briefly: Inhibitory activity against human recombinant HPK1 (TR-FRET). Format: biochemical. The following applies: ULight-p70S6K peptide, ATP at Km, room temperature, 1 hour, 0.32 to 1000 nM compound. An outline of the steps: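 IC50 classes A–D use 10, 50 and 100 nM cut-offs, derived from TR-FRET signal inhibition relative to DMSO controls. Human recombinant HPK1 phosphorylated ULight-p70S6K peptide at Km ATP for 1 h, room temperature, pH 7.4; test range 0.32–1000 nM final, detection with Eu-labelled antibody after EDTA quench.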
For orientation: Time-resolved FRET reads energy transfer from a long-lived donor to a nearby acceptor.

T1 sequence (Q92918 whole entry): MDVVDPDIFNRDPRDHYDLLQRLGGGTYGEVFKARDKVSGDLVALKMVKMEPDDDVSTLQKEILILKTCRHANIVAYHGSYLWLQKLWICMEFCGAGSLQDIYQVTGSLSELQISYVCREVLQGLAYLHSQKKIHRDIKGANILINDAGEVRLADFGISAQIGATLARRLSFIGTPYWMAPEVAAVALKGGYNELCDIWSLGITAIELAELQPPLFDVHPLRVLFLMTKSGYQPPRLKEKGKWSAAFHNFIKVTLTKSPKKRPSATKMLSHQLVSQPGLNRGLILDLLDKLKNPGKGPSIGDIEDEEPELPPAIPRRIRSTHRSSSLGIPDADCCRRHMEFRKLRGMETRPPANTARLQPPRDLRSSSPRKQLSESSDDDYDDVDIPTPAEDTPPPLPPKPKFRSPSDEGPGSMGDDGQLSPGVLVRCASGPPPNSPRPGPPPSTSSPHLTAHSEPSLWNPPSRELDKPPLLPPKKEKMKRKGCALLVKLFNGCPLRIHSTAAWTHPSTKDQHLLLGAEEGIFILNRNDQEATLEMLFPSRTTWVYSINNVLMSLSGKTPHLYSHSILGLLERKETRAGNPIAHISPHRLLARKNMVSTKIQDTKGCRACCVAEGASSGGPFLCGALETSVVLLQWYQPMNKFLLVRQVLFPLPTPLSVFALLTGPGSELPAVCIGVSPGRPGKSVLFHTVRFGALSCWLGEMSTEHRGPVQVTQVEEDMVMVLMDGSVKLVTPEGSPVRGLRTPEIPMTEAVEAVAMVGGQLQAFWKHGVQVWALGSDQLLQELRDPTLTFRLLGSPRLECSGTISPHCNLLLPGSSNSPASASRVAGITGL

Consider `COc1cc(F)cc(F)c1-c1nccc(Nc2cc(N3CCC[C@H](N)C3)c(C#CC3CCOCC3)cn2)n1` [Example 110, (S)-N-(4-(3-aminopiperidin-1-yl)-5-((tetrahydro-2H-pyran-4-yl)ethynyl)pyridin-2-yl)-2-(2,4-difluoro-6-methoxyphenyl)pyrimidin-4-amine], for which the IC50 was at most 10 nM.

Take `COc1cccc(F)c1-c1nccc(Nc2cc(N3CCC[C@H](N)C3)c(C#Cc3cnn(C(F)(F)F)c3)cn2)n1` [Example 111, (S)-N-(4-(3-aminopiperidin-1-yl)-5-((1-(trifluoromethyl)-1H-pyrazol-4-yl)ethynyl)pyridin-2-yl)-2-(2-fluoro-6-methoxyphenyl)pyrimidin-4-amine hydrochloride]: the concentration for half-maximal inhibition (IC50) was at most 10 nM. With `COc1cccc(F)c1-c1nc(Nc2cc(N3CCC[C@H](O)C3)c(-c3cnn(C4CCOCC4)c3)cn2)ccc1C(N)=O` [Example 112, 2-(2-fluoro-6-methoxyphenyl)-6-((4-((S)-3-hydroxypiperidin-1-yl)-5-(1-(tetrahydro-2H-pyran-4-yl)-1H-pyrazol-4-yl)pyridin-2-yl)amino)nicotinamide], the 50% inhibitory concentration (IC50) was at most 10 nM. As for `COc1cccc(F)c1-c1nc(Nc2cc(N3CCC[C@H](O)C3)c(-c3cnn(C4CCOCC4)c3)cn2)ccc1C(=O)N(C)C` [Example 113, 2-(2-fluoro-6-methoxyphenyl)-6-((4-((S)-3-hydroxypiperidin-1-yl)-5-(1-(tetrahydro-2H-pyran-4-yl)-1H-pyrazol-4-yl)pyridin-2-yl)amino)-N,N-dimethylnicotinamide], the figure is 10 to 50 nM; as for `COc1cccc(F)c1-c1nc(Nc2cc(N3CCC[C@H](N)C3)c(C#Cc3cnn(C(F)(F)F)c3)cn2)ccc1F` [Example 114, 4-((S)-3-aminopiperidin-1-yl)-N-(5-fluoro-6-(2-fluoro-6-methoxyphenyl)pyridin-2-yl)-5-((1-(trifluoromethyl)-1H-pyrazol-4-yl)ethynyl)pyridin-2-amine hydrochloride], at most 10 nM; as for `N[C@H]1CCCN(c2cc(Nc3ccnc(-c4cc5nccnc5cc4F)n3)ncc2C#Cc2cnn(C(F)(F)F)c2)C1` [Example 115, (S)-N-(4-(3-aminopiperidin-1-yl)-5-((1-(trifluoromethyl)-1H-pyrazol-4-yl)ethynyl)pyridin-2-yl)-2-(7-fluoroquinoxalin-6-yl)pyrimidin-4-amine hydrochloride], at most 10 nM. As for `COCCCn1cc(-c2cnc(Nc3ccnc(-c4c(F)cccc4OC)n3)cc2N2CCC[C@H](N)C2)cn1` [Example 116, (S)-N-(4-(3-aminopiperidin-1-yl)-5-(1-(3-methoxypropyl)-1H-pyrazol-4-yl)pyridin-2-yl)-2-(2-fluoro-6-methoxyphenyl)pyrimidin-4-amine hydrochloride], the figure is at most 10 nM; as for `COc1cccc(F)c1-c1nccc(Nc2cc(N3CCC4(CCN(C)C4)CC3)c(-c3cnn(C4CCOCC4)c3)cn2)n1` [Example 117, 2-(2-fluoro-6-methoxyphenyl)-N-(4-(2-methyl-2,8-diazaspiro[4.5]decan-8-yl)-5-(1-(tetrahydro-2H-pyran-4-yl)-1H-pyrazol-4-yl)pyridin-2-yl)pyrimidin-4-amine], at most 10 nM. For `COc1cccc(F)c1-c1nccc(Nc2cc(N3CCC[C@H](N)C3)c(-c3ccc(N(C)C)nc3)cn2)n1` [Example 118, (S)-4-(3-aminopiperidin-1-yl)-N^6-(2-(2-fluoro-6-methoxyphenyl)pyrimidin-4-yl)-N^6′,N^6′-dimethyl-[3,3′-bipyridin]-6,6′-diamine hydrochloride] the value was at most 10 nM; for `COc1cccc(F)c1-c1nccc(Nc2cc(N3CCC[C@H](N)C3)c(-c3ccc(N4CCCC4)nc3)cn2)n1` [Example 119, (S)-4-(3-aminopiperidin-1-yl)-N-(2-(2-fluoro-6-methoxyphenyl)pyrimidin-4-yl)-6′-(pyrrolidin-1-yl)-[3,3′-bipyridin]-6-amine hydrochloride], at most 10 nM.

Take `COc1cccc(F)c1-c1nccc(Nc2cc(N3CCC[C@H](N)C3)c(-c3ccc(N4CCCCC4)nc3)cn2)n1` [Example 120, (S)-4-(3-aminopiperidin-1-yl)-N-(2-(2-fluoro-6-methoxyphenyl)pyrimidin-4-yl)-6′-(piperidin-1-yl)-[3,3′-bipyridin]-6-amine hydrochloride]: the IC50 is at most 10 nM.

Take `COc1cccc(F)c1-c1nccc(Nc2cc(N3CCC[C@H](N)C3)c(-c3ccc(N4CCOCC4)nc3)cn2)n1` [Example 121, (S)-4-(3-aminopiperidin-1-yl)-N-(2-(2-fluoro-6-methoxyphenyl)pyrimidin-4-yl)-6′-morpholino-[3,3′-bipyridin]-6-amine hydrochloride]: the IC50 was at most 10 nM. Take `CN[C@H]1CCCN(c2cc(Nc3ccnc(-c4c(F)cccc4OC)n3)ncc2-c2cnn(C(F)F)c2)C1` [Example 122, (S)-N-(5-(1-(difluoromethyl)-1H-pyrazol-4-yl)-4-(3-(methylamino)piperidin-1-yl)pyridin-2-yl)-2-(2-fluoro-6-methoxyphenyl)pyrimidin-4-amine hydrochloride]: the IC50 was at most 10 nM. For `CN[C@@H]1CCCN(c2cc(Nc3ccnc(-c4c(F)cccc4OC)n3)ncc2-c2cnn(C(F)F)c2)C1` [Example 123, (R)-N-(5-(1-(difluoromethyl)-1H-pyrazol-4-yl)-4-(3-(methylamino)piperidin-1-yl)pyridin-2-yl)-2-(2-fluoro-6-methoxyphenyl)pyrimidin-4-amine hydrochloride] the value was 10 to 50 nM; for `CN[C@H]1CCN(c2cc(Nc3ccnc(-c4c(F)cccc4OC)n3)ncc2-c2cnn(C3CCOCC3)c2)C1` [Example 124, (S)-2-(2-fluoro-6-methoxyphenyl)-N-(4-(3-(methylamino)pyrrolidin-1-yl)-5-(1-(tetrahydro-2H-pyran-4-yl)-1H-pyrazol-4-yl)pyridin-2-yl)pyrimidin-4-amine], at most 10 nM. For `CCN[C@H]1CCN(c2cc(Nc3ccnc(-c4c(F)cccc4OC)n3)ncc2-c2cnn(C3CCOCC3)c2)C1` [Example 125, (S)-N-(4-(3-(ethylamino)pyrrolidin-1-yl)-5-(1-(tetrahydro-2H-pyran-4-yl)-1H-pyrazol-4-yl)pyridin-2-yl)-2-(2-fluoro-6-methoxyphenyl)pyrimidin-4-amine] the value was at most 10 nM; for `COc1cccc(F)c1-c1nccc(Nc2cc(N3CC[C@@H](NC(C)=O)C3)c(-c3cnn(C4CCOCC4)c3)cn2)n1` [Example 126, (R)-N-(1-(2-((2-(2-fluoro-6-methoxyphenyl)pyrimidin-4-yl)amino)-5-(1-(tetrahydro-2H-pyran-4-yl)-1H-pyrazol-4-yl)pyridin-4-yl)pyrrolidin-3-yl)acetamide], 10 to 50 nM.

Consider `N[C@H]1CCCN(c2cc(Nc3cccc(N4CCOC4=O)n3)ncc2-c2cnn(C3CCOCC3)c2)C1` [Example 127, (S)-3-(6-((4-(3-aminopiperidin-1-yl)-5-(1-(tetrahydro-2H-pyran-4-yl)-1H-pyrazol-4-yl)pyridin-2-yl)amino)pyridin-2-yl)oxazolidin-2-one hydrochloride], for which the concentration for half-maximal inhibition (IC50) lay within 10 to 50 nM. `COc1cccc(F)c1-c1nccc(Nc2cc(N3CC[C@H](NC(C)=O)C3)c(-c3cnn(C4CCOCC4)c3)cn2)n1` [Example 128, (S)-N-(1-(2-((2-(2-fluoro-6-methoxyphenyl)pyrimidin-4-yl)amino)-5-(1-(tetrahydro-2H-pyran-4-yl)-1H-pyrazol-4-yl)pyridin-4-yl)pyrrolidin-3-yl)acetamide]: the half-maximal inhibitory concentration (IC50) was over 100 nM. With `COc1cccc(F)c1-c1nc(Nc2cc(N3CCC[C@H](N)C3)c(-c3cnn(C4CCOCC4)c3)cn2)ccc1C(N)=O` [Example 129, 6-((4-((S)-3-aminopiperidin-1-yl)-5-(1-(tetrahydro-2H-pyran-4-yl)-1H-pyrazol-4-yl)pyridin-2-yl)amino)-2-(2-fluoro-6-methoxyphenyl)nicotinamide hydrochloride], the IC50 was at most 10 nM.

On to `COc1cccc(F)c1-c1nc(Nc2cc(N3CCC[C@H](N)C3)c(-c3cnn(C4CCOCC4)c3)cn2)ccc1C(=O)N(C)C` [Example 130, 6-((4-((S)-3-aminopiperidin-1-yl)-5-(1-(tetrahydro-2H-pyran-4-yl)-1H-pyrazol-4-yl)pyridin-2-yl)amino)-2-(2-fluoro-6-methoxyphenyl)-N,N-dimethylnicotinamide hydrochloride], for which the 50% inhibitory concentration (IC50) is at most 10 nM.

In the case of `COc1cccc(F)c1-c1nccc(Nc2cc(N3CCC[C@H](N)C3)c(-c3cn(C)nc3C(F)(F)F)cn2)n1` [Example 131, (S)-N-(4-(3-aminopiperidin-1-yl)-5-(1-methyl-3-(trifluoromethyl)-1H-pyrazol-4-yl)pyridin-2-yl)-2-(2-fluoro-6-methoxyphenyl)pyrimidin-4-amine hydrochloride], the IC50 lay within 50 to 100 nM. For `COc1cccc(F)c1-c1nccc(Nc2cc(N3CCC[C@H](N)C3)c(-c3cnn(CC(=O)N(C)C)c3)cn2)n1` [Example 132, (S)-2-(4-(4-(3-aminopiperidin-1-yl)-6-((2-(2-fluoro-6-methoxyphenyl)pyrimidin-4-yl)amino)pyridin-3-yl)-1H-pyrazol-1-yl)-N,N-dimethylacetamide hydrochloride] the value was at most 10 nM.

In the case of `COc1cccc(F)c1-c1nccc(Nc2cc(N3CCC[C@H](N)C3)c(-c3cnn(CCO)c3)cn2)n1` [Example 133, (S)-2-(4-(4-(3-aminopiperidin-1-yl)-6-((2-(2-fluoro-6-methoxyphenyl)pyrimidin-4-yl)amino)pyridin-3-yl)-1H-pyrazol-1-yl)ethan-1-ol hydrochloride], the IC50 is at most 10 nM. As for `COc1cccc(F)c1-c1nccc(Nc2cc(N3CCC[C@H](N)C3)c(-c3cnn(CC(F)F)c3)cn2)n1` [Example 134, (S)-N-(4-(3-aminopiperidin-1-yl)-5-(1-(2,2-difluoroethyl)-1H-pyrazol-4-yl)pyridin-2-yl)-2-(2-fluoro-6-methoxyphenyl)pyrimidin-4-amine hydrochloride], the figure is at most 10 nM.
